Values of other authors in patent publication US20230383363A1, “METHOD FOR DETERMINING SENSITIVITY TO PARP INHIBITOR OR DNA DAMAGING AGENT USING NON-FUNCTIONAL TRANSCRIPTOME” (GC GENOME CORPORATION, priority 2020, published 2023).

Details: patients selected by FoundationFocusCDxBRCA (BRCA1 and BRCA2 mutations)

In the case of CNCc1ccc(-c2[nH]c3cc(F)cc4c3c2CCNC4=O)cc1 [rucaparib], the “overall response rate (ORR)” value is given as 53.8%.
